From US9695155B2, “Herbicidal substituted pyrimidinyloxy benzene compounds” (E. I. DU PONT DE NEMOURS AND COMPANY, priority 2013, dated 2017)

Experiments:
[1] = system: kochia; assay: Test A postemergence; assay type: in vivo, Kochia scoparia; details: for Plant response rating, Kochia: 31 g ai/ha, 0 to 100 scale, 0 no effect, 100 complete control; for Kochia plant response rating: 125 g ai/ha, 0 to 100 scale where 0 is no effect and 100 is complete control
Procedure, shortened: (§1)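 Scoring: eye-based comparison with untreated controls, 0 for no effect through 100 for complete control, at about day 10. Treatments: directed soil spray preemergence; foliar spray postemergence on 2–10 cm plants at the one- to two-leaf stage. Medium: loam soil with sand.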

[2] = system: sedge, umbrella; assay: Test B flooded paddy test; assay type: in vivo, Cyperus difformis; details: Flood, 250 g ai/ha; 0 to 100 scale where 0 is no effect and 100 is complete control
Procedure, shortened: (§2)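 Evaluation is visual, against untreated controls, 13 to 15 days after treatment. Before treatment, plants reached the 2-leaf stage; pots were then flooded 3 cm deep, compound was added to the water, and that level was maintained. Ratings run 0 to 100, with 100 meaning complete control.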

[3] = system: galium; assay: Test A postemergence; assay type: in vivo, Galium aparine; details: for Plant response rating, Galium: 31 g ai/ha, 0 to 100 scale, 0 no effect, 100 complete control; for Galium plant response rating: 125 g ai/ha, 0 to 100 scale where 0 is no effect and 100 is complete control
Procedure, shortened: as §1

[4] = system: ragweed; assay: Test A postemergence; assay type: in vivo, Ambrosia elatior; details: for Plant response rating, Ragweed: 31 g ai/ha, 0 to 100 scale, 0 no effect, 100 complete control; for Ragweed plant response rating: 125 g ai/ha, 0 to 100 scale where 0 is no effect and 100 is complete control
Procedure, shortened: as §1

[5] = system: kochia; assay: Test A preemergence; assay type: in vivo, Kochia scoparia; details: 0 to 100 scale where 0 is no effect and 100 is complete control
Procedure, shortened: as §1

[6] = system: blackgrass; assay: Test A postemergence; assay type: in vivo, Alopecurus myosuroides; details: for Plant response rating, Blackgrass: 31 g ai/ha, 0 to 100 scale, 0 no effect, 100 complete control; for Blackgrass plant response rating: 125 g ai/ha, 0 to 100 scale where 0 is no effect and 100 is complete control
Procedure, shortened: as §1

[7] = system: giant foxtail; assay: Test A preemergence; assay type: in vivo, Setaria faberii; details: 0 to 100 scale where 0 is no effect and 100 is complete control
Procedure, shortened: as §1

[8] = system: barnyardgrass; assay: Test A postemergence; assay type: in vivo, Echinochloa crus-galli; details: for Plant response rating, Barnyardgrass: 31 g ai/ha, 0 to 100 scale, 0 no effect, 100 complete control; for Barnyardgrass plant response rating: 125 g ai/ha, 0 to 100 scale where 0 is no effect and 100 is complete control
Procedure, shortened: as §1

[9] = system: Italian ryegrass; assay: Test A preemergence; assay type: in vivo, Lolium multiflorum; details: 0 to 100 scale where 0 is no effect and 100 is complete control
Procedure, shortened: as §1

[10] = system: barnyardgrass; assay: Test B flooded paddy test; assay type: in vivo, Echinochloa crus-galli; details: Flood, 250 g ai/ha; 0 to 100 scale where 0 is no effect and 100 is complete control
Procedure, shortened: as §2

[11] = system: pigweed; assay: Test A preemergence; assay type: in vivo, Amaranthus retroflexus; details: 0 to 100 scale where 0 is no effect and 100 is complete control
Procedure, shortened: as §1

[12] = system: rice; assay: Test B flooded paddy test; assay type: in vivo, Oryza sativa; details: Flood, 250 g ai/ha; 0 to 100 scale where 0 is no effect and 100 is complete control
Procedure, shortened: as §2

[13] = system: barnyardgrass; assay: Test A preemergence; assay type: in vivo, Echinochloa crus-galli; details: 0 to 100 scale where 0 is no effect and 100 is complete control
Procedure, shortened: as §1

[14] = system: pigweed; assay: Test A postemergence; assay type: in vivo, Amaranthus retroflexus; details: for Plant response rating, Pigweed: 31 g ai/ha, 0 to 100 scale, 0 no effect, 100 complete control; for Pigweed plant response rating: 125 g ai/ha, 0 to 100 scale where 0 is no effect and 100 is complete control
Procedure, shortened: as §1

[15] = system: wheat; assay: Test A postemergence; assay type: in vivo, Triticum aestivum; details: for Plant response rating, Wheat: 31 g ai/ha, 0 to 100 scale, 0 no effect, 100 complete control; for Wheat plant response rating: 125 g ai/ha, 0 to 100 scale where 0 is no effect and 100 is complete control
Procedure, shortened: as §1

[16] = system: giant foxtail; assay: Test A postemergence; assay type: in vivo, Setaria faberii; details: for Plant response rating, Foxtail, Giant: 31 g ai/ha, 0 to 100 scale, 0 no effect, 100 complete control; for Foxtail, Giant plant response rating: 125 g ai/ha, 0 to 100 scale where 0 is no effect and 100 is complete control
Procedure, shortened: as §1

[17] = system: ragweed; assay: Test A preemergence; assay type: in vivo, Ambrosia elatior; details: 0 to 100 scale where 0 is no effect and 100 is complete control
Procedure, shortened: as §1

[18] = system: Heteranthera limosa; assay: Test B flooded paddy test; assay type: in vivo; details: Flood, 250 g ai/ha; 0 to 100 scale where 0 is no effect and 100 is complete control
Procedure, shortened: as §2

[19] = system: corn; assay: Test A postemergence; assay type: in vivo, Zea mays; details: for Plant response rating, Corn: 31 g ai/ha, 0 to 100 scale, 0 no effect, 100 complete control; for Corn plant response rating: 125 g ai/ha, 0 to 100 scale where 0 is no effect and 100 is complete control
Procedure, shortened: as §1

[20] = system: Italian ryegrass; assay: Test A postemergence; assay type: in vivo, Lolium multiflorum; details: for Plant response rating, Ryegrass, Italian: 31 g ai/ha, 0 to 100 scale, 0 no effect, 100 complete control; for Ryegrass, Italian plant response rating: 125 g ai/ha, 0 to 100 scale where 0 is no effect and 100 is complete control
Procedure, shortened: as §1

[21] = 31 g ai/ha, visual, approximately 10 days

SMILES: CC(C)Oc1cnn(-c2c(C#N)cccc2Oc2ncc(Cl)cn2)c1 [Compound 149]
- Plant response rating, Kochia [1]: 60
- Kochia plant response rating [1]: 70
- Plant response rating, Sedge, Umbrella [2]: 65
- Plant response rating, Galium [3]: 70
- Galium plant response rating [3]: 100
- Plant response rating, Ragweed [4]: 50
- Ragweed plant response rating [4]: 80
- Plant response rating, Kochia [5, 21]: 70
- Plant response rating, Kochia ([5]; 125 g ai/ha): 100
- Plant response rating, Blackgrass [6]: 50
- Blackgrass plant response rating [6]: 80
- Plant response rating, Foxtail, Giant [7, 21]: 60
- Plant response rating, Foxtail, Giant ([7]; 125 g ai/ha): 100
- Plant response rating, Barnyardgrass [8]: 20
- Barnyardgrass plant response rating [8]: 70
- Plant response rating, Ryegrass, Italian [9, 21]: 0
- Plant response rating, Ryegrass, Italian ([9]; 125 g ai/ha): 20
- Plant response rating, Barnyardgrass [10]: 0
- Plant response rating, Pigweed [11, 21]: 100
- Plant response rating, Pigweed ([11]; 125 g ai/ha): 100
- Plant response rating, Rice [12]: 0
- Plant response rating, Barnyardgrass [13, 21]: 40
- Plant response rating, Barnyardgrass ([13]; 125 g ai/ha): 90
- Plant response rating, Pigweed [14]: 60
- Pigweed plant response rating [14]: 100
- Plant response rating, Wheat [15]: 0
- Wheat plant response rating [15]: 0
- Plant response rating, Foxtail, Giant [16]: 20
- Foxtail, Giant plant response rating [16]: 90
- Plant response rating, Ragweed [17, 21]: 0
- Plant response rating, Ragweed ([17]; 125 g ai/ha): 60
- Plant response rating, Ducksalad [18]: 70
- Plant response rating, Corn [19]: 0
- Corn plant response rating [19]: 20
- Plant response rating, Ryegrass, Italian [20]: 0
- Ryegrass, Italian plant response rating [20]: 30

SMILES: CCCOc1cnn(-c2c(F)cccc2Oc2ncc(F)cn2)c1 [Compound 153]
- Plant response rating, Kochia [1]: 0
- Kochia plant response rating [1]: 0
- Plant response rating, Sedge, Umbrella [2]: 0
- Plant response rating, Galium [3]: 0
- Galium plant response rating [3]: 0
- Plant response rating, Ragweed [4]: 0
- Ragweed plant response rating [4]: 0
- Plant response rating, Kochia [5, 21]: 0
- Plant response rating, Kochia ([5]; 125 g ai/ha): 0
- Plant response rating, Blackgrass [6]: 0
- Blackgrass plant response rating [6]: 0
- Plant response rating, Foxtail, Giant [7, 21]: 0
- Plant response rating, Foxtail, Giant ([7]; 125 g ai/ha): 0
- Plant response rating, Barnyardgrass [8]: 0
- Barnyardgrass plant response rating [8]: 0
- Plant response rating, Ryegrass, Italian [9, 21]: 0
- Plant response rating, Ryegrass, Italian ([9]; 125 g ai/ha): 0
- Plant response rating, Barnyardgrass [10]: 0
- Plant response rating, Pigweed [11, 21]: 0
- Plant response rating, Pigweed ([11]; 125 g ai/ha): 0
- Plant response rating, Rice [12]: 0
- Plant response rating, Barnyardgrass [13, 21]: 0
- Plant response rating, Barnyardgrass ([13]; 125 g ai/ha): 0
- Plant response rating, Pigweed [14]: 0
- Pigweed plant response rating [14]: 0
- Plant response rating, Wheat [15]: 0
- Wheat plant response rating [15]: 0
- Plant response rating, Foxtail, Giant [16]: 0
- Foxtail, Giant plant response rating [16]: 0
- Plant response rating, Ragweed [17, 21]: 0
- Plant response rating, Ragweed ([17]; 125 g ai/ha): 0
- Plant response rating, Ducksalad [18]: 30
- Plant response rating, Corn [19]: 0
- Corn plant response rating [19]: 0
- Plant response rating, Ryegrass, Italian [20]: 0
- Ryegrass, Italian plant response rating [20]: 0

SMILES: Fc1cnc(Oc2cccc(Br)c2-n2cc(OCC(F)(F)F)cn2)nc1 [Compound 157]
- Plant response rating, Kochia [1]: 60
- Kochia plant response rating [1]: 100
- Plant response rating, Sedge, Umbrella [2]: 75
- Plant response rating, Galium [3]: 60
- Galium plant response rating [3]: 90
- Plant response rating, Ragweed [4]: 20
- Ragweed plant response rating [4]: 50
- Plant response rating, Kochia [5, 21]: 60
- Plant response rating, Kochia ([5]; 125 g ai/ha): 90
- Plant response rating, Blackgrass [6]: 30
- Blackgrass plant response rating [6]: 50
- Plant response rating, Foxtail, Giant [7, 21]: 70
- Plant response rating, Foxtail, Giant ([7]; 125 g ai/ha): 100
- Plant response rating, Barnyardgrass [8]: 10
- Barnyardgrass plant response rating [8]: 80
- Plant response rating, Ryegrass, Italian [9, 21]: 0
- Plant response rating, Ryegrass, Italian ([9]; 125 g ai/ha): 0
- Plant response rating, Barnyardgrass [10]: 35
- Plant response rating, Pigweed [11, 21]: 90
- Plant response rating, Pigweed ([11]; 125 g ai/ha): 90
- Plant response rating, Rice [12]: 35
- Plant response rating, Barnyardgrass [13, 21]: 20
- Plant response rating, Barnyardgrass ([13]; 125 g ai/ha): 80
- Plant response rating, Pigweed [14]: 90
- Pigweed plant response rating [14]: 100
- Plant response rating, Wheat [15]: 0
- Wheat plant response rating [15]: 0
- Plant response rating, Foxtail, Giant [16]: 10
- Foxtail, Giant plant response rating [16]: 80
- Plant response rating, Ragweed ([17]; 125 g ai/ha): 30
- Plant response rating, Ducksalad [18]: 80
- Plant response rating, Corn [19]: 0
- Corn plant response rating [19]: 40
- Plant response rating, Ryegrass, Italian [20]: 0
- Ryegrass, Italian plant response rating [20]: 20
